This is an account of results in patent US10471080B2, “Use of trehalose for prevention of neural tube defects” (UNIVERSITY OF MARYLAND, BALTIMORE, priority 2012, dated 2019).

Series [1] deals with LC3-II. Kind of series: LC3-II levels in cultured E8 embryos under high glucose with or without Chloroquine. The following applies: high glucose 250 mg/dl, 25 μmol/L Chloroquine.
The test system of a further series is NTDs. The following applies: cited from earlier work.
Another series deals with autophagy. The following applies: in vitro; cited from earlier work.
The subject of series [2] is LC3-II. The series is described as follows: LC3-II levels in E8.75 embryos. Particulars: E8.75 embryos of diabetic dams. In kind it is in vivo, mouse.
Series [3] relates to neurogenesis in the developing neural tube. Kind of series: Immunofluorescent staining of TuJ1 and Sox1 in developing neural tubes (neurogenesis). In kind it is in vivo, mouse. Particulars: neural tubes exposed to diabetes. Here is the method: Immunofluorescent staining. […] Deparaffinized sections were incubated with TuJ 1 antibody (Covance, #MMS-435P) at 1:400 dilution or Sox1 antibody (Cell Signaling, #4194) at 1:100 dilution in PBS with 10% heat-inactivated donkey serum overnight at 4° C. After washes in PBS, sections were incubated with secondary antibodies, Alexa Fluor® 488 Donkey Anti-Mouse IgG to TuJ1, and Alexa Fluor® 594 Donkey Anti-Rabbit IgG to Sox1. Cell nuclei were stained with DAPI (Blue). Immunofluorescent staining was examined by immunofluorescence microscopy. In order to visualize neurogenesis throughout the anterior neural tube, serial sections through the entire anterior neural tube were analyzed and representative images were shown. The earliest neurogenesis site was found at the boundary of midbrain and hindbrain. Five embryos from five dams per group were analyzed.

In series [4] the test system is 4-HNE, MDA, nitrotyrosine or ubiquitin-modified proteins. Kind of series: Levels of oxidized and ubiquitin-modified (dysfunctional) proteins in E8.75 embryos. The following applies: diabetic group with 5% trehalose. In kind it is in vivo, mouse.
In series [5] the test system is embryonic neuroepithelial cells. The series is described as follows: GFP-LC3 puncta analysis in GFP-LC3 transgenic mice. The format is in vivo, mouse. On the procedure:
GFP-LC3 puncta analysis. GFP-LC3 transgenic (Tg) mice were used to quantify autophagy in vivo. E8.75 embryos were gathered, fixed in 4% paraformaldehyde (PFA) in PBS for 30 min at 4° C., quickly frozen, and cryosectioned at […] GFP florescent images in embryonic neuroepithelial cells were recorded by confocal microscopy using a laser scanning microscope (LSM 510 META, ZEISS). GFP-LC3 punctate foci with a diameter greater than or equal to 20 pixels in each cell were calculated by Image J software according to the manufacturer's manual.

A short description of series [6]: Trehalose measurement in maternal serum and embryos (Trehalose Kit, Megazyme). In kind it is in vivo, mouse. The following applies: diabetic dams. On the procedure: (§1) Trehalose treatment and trehalose measurement. Concentrations of either 2% or 5% (gram/volume [ml]) trehalose (Cat#: T9531, Sigma) were given to WT nondiabetic and diabetic pregnant mice at E5.5 in drinking water. Trehalose levels in maternal serum and embryos were determined by the Trehalose Kit from Megazyme (Wicklow, Ireland).

In a further series the test system is neuroepithelial cells. Kind of series: Electron microscopy of autophagosomes and mitochondria in E8.75 neuroepithelia. The format is in vivo, mouse. An excerpt: Electron microscopy. The structures of autophagosome and mitochondria were examined by transmission electron microscopy (EM) in the University of Maryland EM core facility. Thick sections (1 μm) were cut and visualized at ×100 magnifications to identify the neuroepithelia of E8.75 embryos. Thin sections (80 nm) of identified neuroepithelia were cut and viewed with an electron microscope (Joel JEM-1200EX; Tokyo, Japan) under high-power resolution (10, 12 and 25 K) for identification of cellular organelle structures.

The subject of series [7] is ER stress and JNK1/2 activation. The series is described as follows: ER stress markers and JNK1/2 activation in E8.75 embryos. The format is in vivo, mouse. Particulars: diabetic group with 5% trehalose.
Series [8] deals with neuroepithelial cell apoptosis. The series is described as follows: Pro-apoptotic Bcl-2 members, caspase cleavage and TUNEL assay in E8.75 embryos. In kind it is in vivo, mouse. The following applies: diabetic group with 5% trehalose. On the procedure: TUNEL assay. TUNEL assay was performed as previously described (21, 22). Briefly, 5-μm serial coronal sections through the forebrain-midbrain (FB-MB) boundary of the anterior neural tube were fixed with 4% PFA in PBS and incubated with TUNEL reaction agents. Closure at the FB-MB boundary is an essential step for closure of the anterior neural tube, and failed closure in this area results in exencephaly (2, 8). TUNEL-positive cells were counted in the neural tube area of each section. Based on the counting of total cell nuclei, the sizes of the neural tube areas of each section were relatively constant. Thus, apoptotic cell numbers were expressed as total TUNEL-positive cells per neural tube area. TUNEL assays were performed without the observer knowing the experimental group of the embryo examined.

In series [9] the test system is maternal diabetes-induced NTDs. The series is described as follows: In vivo mouse model of diabetic embryopathy, morphologic assessment of NTDs at E11.5. On the procedure:
In vivo mouse model of diabetic embryopathy and morphologic assessment of NTDs. The mouse model of diabetic embryopathy was previously described (21, 22). Briefly, female mice were intravenously (i.v.) injected daily with 75 mg/kg streptozotocin (STZ) over two days to induce diabetes. Nondiabetic WT with vehicle injection served as controls. Diabetes was defined as 12-hour fasting blood glucose levels ≥250 mg/dl, which normally occurred at 3-5 days after STZ injections. There is no residual toxic effect caused by STZ in this animal model. Embryos were gathered at E8.75 (2:00 PM at E8.5) for analysis and at E11.5 from NTD examination.
as §1
Statistical analyses. Statistical differences were determined by Student's t-test for two group comparisons and One way ANOVA for more than two groups comparisons using SigmaStat 3.5 software. In ANOVA analysis, Tukey-test was used to estimate the significance of the results. Significant difference between groups in NTD incidence was analyzed by Chi-square test.

The subject of series [10] is ULK1, Beclin 1, Atg3, Atg5, Ambra1, p62, Dap. Kind of series: Autophagy-related gene expression in E8.75 embryos. The format is in vivo, mouse. The following applies: diabetic group.

Consider `CCN(CC)CCCC(C)Nc1ccnc2cc(Cl)ccc12` (centres unmarked) [Chloroquine], for which the “high glucose-induced LC3-II reduction” value in the series with LC3-II [1] was “did not block high glucose-induced LC3-II reduction”.

Take `O[C@H]1[C@H](O)[C@@H](O)[C@H](O)[C@@H](O)[C@H]1O` [inositol]: the “folate-resistant NTDs” value with NTDs was “can prevent some of the folate-resistant NTDs”.

On to `OC[C@H]1O[C@H](O[C@H]2O[C@H](CO)[C@@H](O)[C@H](O)[C@H]2O)[C@H](O)[C@@H](O)[C@@H]1O` [trehalose], for which the autophagy stimulating activities entry in the series with autophagy is “possess autophagy stimulating activities in vitro”. Moreover, the LC3-II expression result with LC3-II [2] was “restored maternal diabetes-diminished LC3-II expression”. In series [3], the “differentiation of Sox1 positive neural progenitors” value is given as “corrected maternal diabetes-blocked differentiation of Sox1 positive neural progenitors”. The “neurogenesis (TuJ1 expressing neurons)” value in series [3] (E9.0 to E10.5) is reported as “reversed delayed neurogenesis”. The “levels of 4-HNE, MDA, nitrotyrosine or ubiquitin-modified proteins” value in series [4] is reported as “blocked maternal diabetes-increased levels of all of these modified proteins”. In addition, in series [5] (diabetic group treated with trehalose, E8.75), the “number of autophagic GFP-LC3 puncta in neuroepithelial cells” value was “restored to the level of that observed in the nondiabetic groups”. Further, the “basal autophagy activities in neuroepithelial cells” value in [5] (nondiabetic group) is listed as “did not affect basal autophagy activities”. The figures for the embryonic trehalose levels in series [6] (2% group) and in series [6] (5% group) were 15.8±1.0 μg/g tissue and 53.9±3.7 μg/g tissue, respectively. Further, the “trehalose in maternal blood” value in series [6] (2% trehalose in drinking water) came out at 162.0 ± 16.9 µg/mL; in [6] (5% trehalose in drinking water), 503.9 ± 19.3 µg/mL. The “number of defective mitochondria” value with neuroepithelial cells (diabetic conditions, E8.75 neuroepithelia) is reported as “significantly reduced the number of defective mitochondria to a level comparable to that in the nondiabetic control group”. Moreover, the “autophagosome formation in neuroepithelial cells” value in the series on neuroepithelial cells (diabetic group, E8.75) was “blocked maternal diabetes-repressed autophagosome formation”. Also, the “JNK1/2 activation and downstream effector c-Jun” value in series [7] is “completely abolished maternal diabetes-induced JNK1/2 activation”. In addition, the “XBP1 mRNA splicing” value in series [7] is on record as “diminished XBP1 mRNA splicing”. Moreover, the “expression or phosphorylation of ER chaperone proteins BiP, CHOP, eIF2α” value in series [7] was “abrogated maternal diabetes-increased expression or phosphorylation”. The “expression of 7 ER chaperone genes” value in series [7] (mRNA) is given as “abolished”. In series [8], the BID cleavage entry is “prevented”. Further, in series [8], the “caspase 3 and 8 cleavage” value is “abolished maternal diabetes-induced caspase 3 and 8 cleavage”. In addition, in [8], the “level of phosphorylated Bad” value is given as “restored”. Moreover, the “neuroepithelial cell apoptosis (TUNEL)” value in series [8] is listed as “blocked neuroepithelial cell apoptosis”. Moreover, the “maternal diabetes-induced NTDs” value in series [9] (2% trehalose, diabetic dams, lesser extent than 5%) is “significantly reduced maternal diabetes-induced NTDs”. The NTD rate in series [9] (Diabetic + 2% trehalose in drinking water from E5.5, E11.5, total NTD embryos/total embryos) was 9.8%; in series [9] (Nondiabetic + 2% trehalose in drinking water from E5.5, E11.5, total NTD embryos/total embryos), 0%; in [9] (embryos from diabetic dams treated with 5% trehalose water (weight/volume), calculated by litters), 4.0±2.2%; in series [9] (embryos from nondiabetic dams with or without trehalose treatment), 0.0±0.0%. Moreover, the “Resorption Rates” value in series [9] (Diabetic + 2% trehalose, E11.5) is recorded as 4.7; in series [9] (Nondiabetic + 2% trehalose, E11.5), 4.8; in series [9] (nondiabetic and diabetic dams with or without trehalose treatments) it was “did not differ”. In addition, the “Total NTD Embryos” value amounted to 4 in series [9] (Diabetic + 2% trehalose, E11.5, of 41 total embryos) and 0 in series [9] (Nondiabetic + 2% trehalose, E11.5, of 29 total embryos). For the same compound, the “expression of ULK1, Beclin 1, Atg3, Atg5, and Ambra1” value in series [10] is listed as “blocked the downregulation”. In addition, the “expression of p62 and Dap” value in series [10] is “blocked”.
